# Measured values published in patent US5256780A, “Pyrimidoindole derivatives and processes for preparation thereof” (Fujisawa Pharmaceutical Co., Ltd., priority 1989, dated 1993).
# Like-named read-outs stand apart in the source and are kept apart here.
# Tested on: Bezold-Jarisch reflux
# Experiment: Inhibition of Bezold-Jarisch reflux (2-methyl-5-hydroxytryptamine-induced bradycardia in anesthetized rats)
# Type: in vivo
# Details: test compound iv, 5-minutes interval, then 2-methyl-5-hydroxytryptamine 32 μg/kg iv, urethane-anesthetized male Sprague-Dawley rats, bradycardic response
# Procedure: Inhibition of Bezold-Jarisch reflux
# Male Sprague-Dawley rats weighing 260-350 g were anesthetized intraperitoneally with 1.25 g/kg urethane.
# Blood pressure and heart rate were monitored continuously from the left common carotid artery with a pressure transducer. A right femoral vein was cannulated for the intravenous injection (iv) of drugs. The trachea was also cannulated to ease the respiration.
# Rats were given a rapid bolus injection of 2-methyl-5-hydroxytryptamine (32 μg/kg, iv) to establish the control bradycardic response. Once the heart rate returned to base line, the rats were given the test compound (iv), followed by 5-minutes interval and another bolus injection of 2-methyl-5-hydroxytryptamine (32 μg/kg, iv).
Compound,ED50 [µg/kg],"ED50 (Rattus norvegicus, 5 min, read-out: ED50) [µg/kg]"
"3,4-dihydro-5-methyl-2-[(5-methyl-1-trityl-1H-imidazol-4-yl)methyl]pyrimido[1,6-a]indol-1 (2H)-one [Example 1]",0.56,–
"Cc1[nH]cnc1C(C)N1CCc2c(C)c3ccccc3n2C1=O.Cl (centres unmarked) [Compound 2, 3,4-Dihydro-5-methyl-2-[1-(5-methyl-1H-imidazol-4-yl)ethyl]pyrimido[1,6-a]indol-1(2H)-one hydrochloride]",–,1.5
